Laboratory results reported in ChEMBL document CHEMBL5537195, “Novel Covalent Probe Selectively Targeting Glutathione Peroxidase 4 In Vivo: Potential Applications in Pancreatic Cancer Therapy” (J Med Chem, 2024).
Active and inactive are the calls of the source. No cut-off for these calls is given here.

What was measured:
ASPC1 [1] = test: Induction of ferroptosis in human ASPC1 cells with siRNA mediated GPX4 knockdown assessed as reduction in cell viability incubated for 72 hrs by CCK-8 assay; type: functional, cell-based
[2] = target: T1, Phospholipid hydroperoxide glutathione peroxidase GPX4 (Homo sapiens) (UniProt P36969); test: Binding affinity to GPX4 in human ASPC1 cells incubated for 1 hr by SDS-PAGE analysis; type: cell-based; details: dose 0.02-0.2 µM
T1 sequence (whole entry): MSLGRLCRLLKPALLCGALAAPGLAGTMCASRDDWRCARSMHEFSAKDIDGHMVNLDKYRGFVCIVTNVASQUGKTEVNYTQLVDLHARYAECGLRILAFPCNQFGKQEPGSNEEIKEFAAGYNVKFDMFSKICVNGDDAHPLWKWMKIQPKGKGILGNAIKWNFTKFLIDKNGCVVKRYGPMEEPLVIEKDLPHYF

ASPC1 [3] = test: Induction of ferroptosis in human ASPC1 cells assessed as decrease in intracellular GSH level at 5 uM incubated for 5 hrs in absence of […]; type: functional, cell-based
[4] = target: T1, Phospholipid hydroperoxide glutathione peroxidase GPX4 (Homo sapiens); test: Binding affinity to GPX4 in human ASPC1 cells at 0.2 uM incubated for 12 hr followed by compound washout by SDS-PAGE analysis; type: cell-based
PANC-1 = test: Antiproliferative activity against human PANC-1 cells assessed as inhibition of cell growth incubated for 72 hrs by CCK-8 assay; type: functional, cell-based; details: PANC-1, 72 h
[5] = target: T2, Phosphoglycerate kinase 1 (Homo sapiens) (UniProt P00558); test: Binding affinity to PGK1 in human ASPC1 cells at 1 uM incubated for 5 hrs by Western blot analysis; type: cell-based
T2 sequence (whole entry): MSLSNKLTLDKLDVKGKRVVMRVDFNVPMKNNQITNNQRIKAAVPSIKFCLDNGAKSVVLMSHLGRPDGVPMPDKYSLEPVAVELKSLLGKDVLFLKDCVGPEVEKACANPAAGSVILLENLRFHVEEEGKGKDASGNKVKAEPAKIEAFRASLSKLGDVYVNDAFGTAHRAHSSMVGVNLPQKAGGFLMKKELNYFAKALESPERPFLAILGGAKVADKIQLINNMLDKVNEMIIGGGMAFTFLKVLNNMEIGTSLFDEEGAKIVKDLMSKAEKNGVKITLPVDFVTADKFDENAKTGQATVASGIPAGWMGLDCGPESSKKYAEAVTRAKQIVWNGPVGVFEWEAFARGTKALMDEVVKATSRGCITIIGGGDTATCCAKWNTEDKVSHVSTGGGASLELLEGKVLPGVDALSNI

HPAF-II = test: Antiproliferative activity against human HPAF-II cells assessed as inhibition of cell growth incubated for 72 hrs by CCK-8 assay; type: functional, cell-based
[6] = target: Large ribosomal subunit protein eL28 (Homo sapiens) (UniProt P46779); test: Binding affinity to RL28 in human ASPC1 cells at 1 uM incubated for 5 hrs by Western blot analysis; type: cell-based
[7] = target: T1, Phospholipid hydroperoxide glutathione peroxidase GPX4 (Homo sapiens); test: Binding affinity to GPX4 in human CFPAC-1 cells at 0.2 uM incubated for 1 hr by SDS-PAGE analysis; type: cell-based
BXPC-3 = test: Antiproliferative activity against human BXPC-3 cells assessed as inhibition of cell growth incubated for 72 hrs by CCK-8 assay; type: functional, cell-based; details: BXPC-3, 72 h
[8] = target: T1, Phospholipid hydroperoxide glutathione peroxidase GPX4 (Homo sapiens); test: Binding affinity to GPX4 in human ASPC1 cells assessed as thermal stability at 10 uM at 43 to 64 degreeC for 3 mins by CETSA analysis; type: cell-based
ASPC1 [9] = test: Antitumor activity against human ASPC1 cells xenografted in NOD-SCID mouse assessed as tumor growth inhibition at 10 mg/kg, ip administered for 14 days; type: functional; details: ASPC1, 336 h, time 14 day, read-out: TGI
ASPC1 [10] = test: Induction of ferroptosis in human ASPC1 cells assessed as reduction in cell viability incubated for 48 hrs by CCK-8 assay; type: functional, cell-based; details: ASPC1, 48 h
[11] = target: T1, Phospholipid hydroperoxide glutathione peroxidase GPX4 (Homo sapiens); test: Binding affinity to GPX4 in human ASPC1 cells incubated for 1 hr by imaging analysis; type: cell-based; details: dose 0.2-5 µM
Mus musculus = test: In vivo target engagement at GPX4 in SCID mouse at 10 mg/kg, ip qd administered for 14 days and measured after 2 hrs by SDS-PAGE analysis; type: functional, organism-based; details: time 14.0 day
NCI-H522 = test: Induction of ferroptosis in human NCI-H522 cells assessed as reduction in cell viability incubated for 72 hrs by CCK-8 assay; type: functional, cell-based; details: NCI-H522, 72 h
[12] = target: T1, Phospholipid hydroperoxide glutathione peroxidase GPX4 (Homo sapiens); test: Competitive binding affinity to GPX4 in human ASPC1 cells at 0.2 uM incubated for 1 hr in presence of ML210 by immunofluorescence based confocal microscopic analysis; type: cell-based
[13] = target: T1, Phospholipid hydroperoxide glutathione peroxidase GPX4 (Homo sapiens); test: Binding affinity to GPX4 in human Hs766T cells at 0.2 uM incubated for 1 hr by SDS-PAGE analysis; type: cell-based
[14] = target: T1, Phospholipid hydroperoxide glutathione peroxidase GPX4 (Homo sapiens); test: Binding affinity to GPX4 in human Panc1005 cells at 0.2 uM incubated for 1 hr by SDS-PAGE analysis; type: cell-based
[15] = target: T1, Phospholipid hydroperoxide glutathione peroxidase GPX4 (Homo sapiens); test: Competitive binding affinity to GPX4 (unknown origin) at 0.2 uM incubated for 5 hrs in presence of 4-(((4-(benzo[d]thiazol-2-yl)phenyl)(methyl)amino)methyl)-N-ethynyl-N-methylbenzenesulfonamide by pull-down based Western blot analysis
ASPC1 [16] = test: Induction of ferroptosis in human ASPC1 cells assessed as reduction in cell viability incubated for 24 hrs by CCK-8 assay; type: functional, cell-based; details: ASPC1, 24 h
[17] = AUC (0 to t) in Sprague-Dawley rat at 2 mg/kg, iv measured upto 48 hrs by LC-MS/MS analysis; type: ADME, organism-based; details: in vivo
[18] = target: T1, Phospholipid hydroperoxide glutathione peroxidase GPX4 (Homo sapiens); test: Binding affinity to GPX4 in human BXPC-3 cells at 0.2 uM incubated for 1 hr by SDS-PAGE analysis; type: cell-based
[19] = Toxicity in NOD-SCID mouse xenografted with human ASPC1 cells assessed as body weight loss at 10 mg/kg, ip administered for once daily for 14 days; type: organism-based; details: in vivo, 336 h, time 14 day
[20] = target: T1, Phospholipid hydroperoxide glutathione peroxidase GPX4 (Homo sapiens); test: Binding affinity to GPX4 in human ASPC1 cells at 0.2 uM incubated for 1 hr in presence of 4-(((4-(benzo[d]thiazol-2-yl)phenyl)(methyl)amino)methyl)-N-ethynyl-N-methylbenzenesulfonamide by SDS-PAGE analysis; type: cell-based
[21] = target: T1, Phospholipid hydroperoxide glutathione peroxidase GPX4 (Homo sapiens); test: Competitive binding affinity to GPX4 in human ASPC1 cells at 0.2 uM incubated for 1 hr in presence of 4-(((4-(benzo[d]thiazol-2-yl)phenyl)(methyl)amino)methyl)-N-ethynyl-N-methylbenzenesulfonamide; type: cell-based
ASPC1 [22] = test: Induction of ferroptosis in human ASPC1 cells assessed as reduction in cell viability incubated for 72 hrs followed by compound washout by CCK-8 assay; type: functional, cell-based; details: ASPC1, 72 h
[23] = Half life in Sprague-Dawley rat at 2 mg/kg, iv measured upto 48 hrs by LC-MS/MS analysis; type: ADME, organism-based; details: in vivo
ASPC1 [24] = test: Induction of ferroptosis in human ASPC1 cells assessed as effect on ROS level at 1 uM incubated for 3 hrs in presence of […]; type: functional, cell-based
ASPC1 [25] = test: Induction of ferroptosis in human ASPC1 cells assessed as cell death at 2 uM in presence of Z-VAD-FMK; type: functional, cell-based

SMILES: C#CCN(Cc1ccc(S(=O)(=O)N(C)C#C)cc1)c1ccc(-c2nc3ccccc3s2)cc1
- Activity (ASPC1 [1]): Active
- Activity [2]: Dose-Dependent Effect
- Activity (ASPC1 [3]): Active
- Activity [4]: Active
- IC50 (PANC-1): 20 nM
- Activity [5]: Active
- IC50 (HPAF-II): 20 nM
- Activity [6]: Active
- Activity [7]: Active
- IC50 (BXPC-3): 20 nM
- Activity [8]: Active
- inhibition in vivo at 10 mg/kg (ASPC1 [9]): 28%
- IC50 (ASPC1 [10]): 26 nM
- Activity [11]: Dose-Dependent Effect
- Activity (Mus musculus): Active
- IC50 (NCI-H522): 3 nM
- Activity [12]: inactive
- Activity [13]: Active
- Activity [14]: Active
- Activity [15]: Active
- IC50 (ASPC1 [16]): 37 nM
- AUC(0-t) at 48 h [17]: 915 ng·h/mL
- Activity [18]: Active
- Activity [19]: Non-Toxic
- Activity [20]: Active
- Activity [21]: Active
- IC50 (ASPC1 [22]): 29 nM
- half-life [23]: 2.55 h
- Activity (ASPC1 [24]): Active
- Activity (ASPC1 [25]): inactive
